Results on 14 molecules are retold here after ChEMBL document CHEMBL1140631, “Carbonic anhydrases as targets for medicinal chemistry” (Bioorg Med Chem, 2007).

The test concerns the target T1, Carbonic anhydrase 4 (Bos taurus, UniProt Q95323).
T1 sequence (Q95323 whole entry): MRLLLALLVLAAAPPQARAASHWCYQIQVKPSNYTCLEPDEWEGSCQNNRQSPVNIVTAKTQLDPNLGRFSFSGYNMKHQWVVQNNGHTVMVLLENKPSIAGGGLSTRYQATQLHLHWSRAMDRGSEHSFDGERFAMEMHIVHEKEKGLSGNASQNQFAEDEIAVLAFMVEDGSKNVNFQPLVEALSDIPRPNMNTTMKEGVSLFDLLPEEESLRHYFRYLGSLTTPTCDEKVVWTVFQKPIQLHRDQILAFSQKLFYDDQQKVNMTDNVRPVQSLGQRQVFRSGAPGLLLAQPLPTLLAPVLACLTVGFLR
In general, Ki refers to the dissociation constant of the complex between target and ligand, obtained from inhibition or displacement. Lower therefore signals higher affinity. Molecule `Cn1cccc1/C=N/Cc1ccc(S(N)(=O)=O)cc1` showed a Ki of 10 nM. This lies in the double-digit nanomolar range.
In turn, `NS(=O)(=O)c1ccc(CCNC(=S)Nc2ccccc2)cc1` showed a Ki of 70 nM.
As to `NC(=O)Nc1ccc(S(=O)(=O)Nc2ccc(S(N)(=O)=O)cc2)cc1`, the Ki stood at 20 nM.
The value for `NS(=O)(=O)c1ccc(CCNC(=S)NC(=O)Nc2ccc(Cl)c(Cl)c2)cc1` was 24 nM; that for `NC(=O)Nc1ccc(S(=O)(=O)Nc2cccc(S(N)(=O)=O)c2)cc1` was 25 nM.
`NS(=O)(=O)c1ccc(CC/N=C/c2cccc([N+](=O)[O-])c2)cc1` returned a Ki of 140 nM.
Molecule `Cc1ccc(S(=O)(=O)NC(=O)Nc2c(S(N)(=O)=O)cc(S(N)(=O)=O)c(Cl)c2Cl)cc1` gave a Ki of 14 nM.
Regarding `NS(=O)(=O)c1ccc(CC/N=C/c2ccccc2OC(=O)NS(=O)(=O)c2ccc(Cl)cc2)cc1`, the Ki amounted to 160 nM.
The value for `Cc1ccc(S(=O)(=O)NC(=O)Oc2ccccc2/C=N/CCc2ccc(S(N)(=O)=O)cc2)cc1` was 120 nM.
The value for `Cn1cccc1/C=N/CCc1ccc(S(N)(=O)=O)cc1` was 8 nM; that for `NS(=O)(=O)c1ccc(CC/N=C/c2ccncc2)cc1` was 12 nM; that for `NS(=O)(=O)c1nnc(NC(=O)Nc2ccc(Cl)c(Cl)c2)s1` was 8 nM.
Consider `NS(=O)(=O)c1ccc(CC/N=C/c2ccccc2OC(=O)NS(=O)(=O)c2ccccc2)cc1`, for which the affinity corresponds to a Ki of 11 nM. This Ki and that of the molecule before are within 1.5-fold of each other.
`NS(=O)(=O)c1ccc(CC/N=C/c2ccc[nH]2)cc1`: affinity was put at a Ki of 10 nM.
